Starred links: 1 amine or outer side, 2 acyl side, 3 side chain; linkers in the order of their positions; H or OH if unused. Non-standard residues stand in square brackets, D forms with d. Residues, ends and D or L forms follow the SMILES beside them. Groups on a side chain read outwards from the residue. *: point of attachment. X5 = CCCCCCCCCCCCCCCC(=O)N[C@@H](CCC(=O)N[C@@H](CCC(=O)N[C@@H](CCC(=O)NCCCOCCOCCOCCCNC(=O)CCC(=O)NCCCOCCOCCOCCCNC(=O)CCC(=O)NCCCOCCOCCOCCCNC(=O)CCC(=O)NCCCOCCOCCOCCCN*)C(=O)O)C(=O)O)C(=O)O; X10 = CCCCCCCCCCCCCC(=O)N[C@@H](CCC(=O)N[C@@H](CCC(=O)N[C@@H](CCC(=O)N[C@@H](CCC(=O)NCCCOCCOCCOCCCNC(=O)CCC(=O)NCCCOCCOCCOCCCNC(=O)CCC(=O)NCCCOCCOCCOCCCN*)C(=O)O)C(=O)O)C(=O)O)C(=O)O; X1 = CCCCCCCCCCCCCCCC(=O)N[C@@H](CCC(=O)N[C@@H](CCC(=O)N[C@@H](CCC(=O)NCCCOCCOCCOCCCNC(=O)CCC(=O)NCCCOCCOCCOCCCNC(=O)CCC(=O)NCCCOCCOCCOCCCN*)C(=O)O)C(=O)O)C(=O)O; Phe(4-F) = N[C@@H](Cc1ccc(F)cc1)C(=O)O; γGlu = O=C(O)[C@H](CCC(=O)[*:2])N[*:1]; Palmitoyl = CCCCCCCCCCCCCCCC(=O)*; Suc = O=C(CCC(=O)[*:2])[*:1]; αMeK = C[C@](N)(CCCCN)C(=O)O; hLys = NCCCCC[C@H](N)C(=O)O; AEEA = NCCOCCOCC(=O)O; Aib = CC(C)(N)C(=O)O
Target: T1, RXFP1 (Homo sapiens, UniProt Q9HBX9)
T1 construct: OVCAR5 cells expressing endogenous RXFP1; endogenous in cells; host or cells: OVCAR5
T1 sequence (Q9HBX9 1-757): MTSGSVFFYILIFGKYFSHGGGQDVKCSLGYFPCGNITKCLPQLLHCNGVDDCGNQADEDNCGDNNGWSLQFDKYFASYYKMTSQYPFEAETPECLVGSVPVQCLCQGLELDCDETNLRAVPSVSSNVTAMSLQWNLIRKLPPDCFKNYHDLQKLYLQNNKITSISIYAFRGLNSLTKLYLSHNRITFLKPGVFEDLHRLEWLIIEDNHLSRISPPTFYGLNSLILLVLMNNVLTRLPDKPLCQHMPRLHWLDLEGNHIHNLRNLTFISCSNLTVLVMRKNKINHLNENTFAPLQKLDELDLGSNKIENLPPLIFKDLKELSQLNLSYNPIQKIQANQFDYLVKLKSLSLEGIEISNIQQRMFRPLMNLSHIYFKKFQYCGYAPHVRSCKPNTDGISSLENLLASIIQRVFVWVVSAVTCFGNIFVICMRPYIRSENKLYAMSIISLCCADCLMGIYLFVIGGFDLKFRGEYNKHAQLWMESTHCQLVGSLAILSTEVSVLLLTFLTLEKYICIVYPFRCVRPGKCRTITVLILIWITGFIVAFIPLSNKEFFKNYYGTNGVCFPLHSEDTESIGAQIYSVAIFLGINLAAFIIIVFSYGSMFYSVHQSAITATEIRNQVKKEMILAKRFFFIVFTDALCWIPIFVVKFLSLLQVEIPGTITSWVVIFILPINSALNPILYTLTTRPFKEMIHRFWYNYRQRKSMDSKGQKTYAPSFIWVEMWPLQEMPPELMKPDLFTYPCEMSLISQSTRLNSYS
Test: OVCAR5 cAMP assay (HTRF)
Assay type: cell-based
Conditions: for EC50: OVCAR 5 cells expressing endogenous RXFP1, cAMP readout; for Emax: OVCAR 5 cells, maximal cAMP relative to H2-relaxin
Procedure, shortened: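 Endogenous RXFP1 in OVCAR5 cells, pretreated 40 min at 37° C with 1 mM IBMX, then exposed to increasing peptide concentrations in serum-free medium for 30 min at 37° C. cAMP read by HTRF; EC50 by variable-slope sigmoidal fit, Emax as % of H2-relaxin maximal cAMP in same run.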

Compound	EC50 [nM]	Emax [%]
CCCCCCCCCCCCCCCC(=O)N[C@@H](CCC(=O)N[C@@H](CCC(=O)N[C@@H](CCC(=O)NCCCOCCOCCOCCCNC(=O)CCC(=O)NCCCOCCOCCOCCCNC(=O)CCC(=O)NCCCOCCOCCOCCCNC(=O)CCC(=O)NCCCC[C@H](NC(=O)CNC(=O)[C@H](CCC(=O)O)NC(=O)C(C)(C)NC(=O)C(C)(C)NC(=O)[C@@H](NC(=O)[C@H](CCCCNC(C)=O)NC(=O)[C@H](C)NC(=O)[C@H](CCCNC(=N)N)NC(=O)[C@@H](NC(=O)[C@H](CCCCN)NC(=O)[C@H](CCC(=O)O)NC(=O)[C@H](CCCNC(=N)N)NC(=O)CNC(=O)[C@H](CCC(=O)O)NC(=O)[C@H](CC(C)C)NC(C)=O)C(C)C)[C@@H](C)CC)C(=O)N[C@@H](CO)C(=O)N[C@H](C(=O)N[C@@H](Cc1c[nH]c2ccccc12)C(=O)N[C@@H](CO)C(=O)N[C@@H](CCCCCN)C(=O)N[C@@H](CCCNC(=N)N)C(=O)N[C@@H](C)C(=O)N[C@@H](CCCCNC(C)=O)C(N)=O)[C@@H](C)O)C(=O)O)C(=O)O)C(=O)O [compound 57] (Ac-LEGREKVRAK(Ac)I[Aib][Aib]EGK([Suc-X1])STWS[hLys]RAK(Ac)-NH2)	0.44	98
CCCCCCCCCCCCCCCC(=O)N[C@@H](CCC(=O)N[C@@H](CCC(=O)N[C@@H](CCC(=O)NCCCOCCOCCOCCCNC(=O)CCC(=O)NCCCOCCOCCOCCCNC(=O)CCC(=O)NCCCOCCOCCOCCCNC(=O)CCC(=O)NCCCC[C@H](NC(=O)CNC(=O)[C@H](CCC(=O)O)NC(=O)C(C)(C)NC(=O)C(C)(C)NC(=O)[C@@H](NC(=O)[C@H](CCCCNC(C)=O)NC(=O)[C@H](C)NC(=O)[C@H](CCCNC(=N)N)NC(=O)[C@@H](NC(=O)[C@H](CCCCN)NC(=O)[C@H](CCC(=O)O)NC(=O)[C@H](CCCNC(=N)N)NC(=O)CNC(=O)[C@H](CCC(=O)O)NC(=O)[C@H](CC(C)C)NC(C)=O)C(C)C)[C@@H](C)CC)C(=O)N[C@@H](CO)C(=O)N[C@H](C(=O)N[C@@H](Cc1ccccc1)C(=O)N[C@@H](CO)C(=O)N[C@H](CCCCN)C(=O)N[C@@H](CCCNC(=N)N)C(=O)N[C@@H](C)C(=O)N[C@@H](CCCCNC(C)=O)C(N)=O)[C@@H](C)O)C(=O)O)C(=O)O)C(=O)O [compound 36] (Ac-LEGREKVRAK(Ac)I[Aib][Aib]EGK([Suc-X1])STFS[dK]RAK(Ac)-NH2)	3.6	93
CCCCCCCCCCCCCC(=O)N[C@@H](CCC(=O)N[C@@H](CCC(=O)N[C@@H](CCC(=O)N[C@@H](CCC(=O)NCCCOCCOCCOCCCNC(=O)CCC(=O)NCCCOCCOCCOCCCNC(=O)CCC(=O)NCCCOCCOCCOCCCNC(=O)CCC(=O)NCCCC[C@H](NC(=O)CNC(=O)[C@H](CCC(=O)O)NC(=O)C(C)(C)NC(=O)C(C)(C)NC(=O)[C@@H](NC(=O)[C@H](CCCCNC(C)=O)NC(=O)[C@H](C)NC(=O)[C@H](CCCNC(=N)N)NC(=O)[C@@H](NC(=O)[C@H](CCCCN)NC(=O)[C@H](CCC(=O)O)NC(=O)[C@H](CCCNC(=N)N)NC(=O)CNC(=O)[C@H](CCC(=O)O)NC(=O)[C@H](CC(C)C)NC(C)=O)C(C)C)[C@@H](C)CC)C(=O)N[C@@H](CO)C(=O)N[C@H](C(=O)N[C@@H](Cc1ccccc1)C(=O)N[C@@H](CO)C(=O)N[C@@](C)(CCCCN)C(=O)N[C@@H](CCCNC(=N)N)C(=O)N[C@@H](C)C(=O)N[C@@H](CCCCN)C(N)=O)[C@@H](C)O)C(=O)O)C(=O)O)C(=O)O)C(=O)O [compound 97] (Ac-LEGREKVRAK(Ac)I[Aib][Aib]EGK([Suc-X10])STFS[αMeK]RAK-NH2)	0.29	98
CCCCCCCCCCCCCCCC(=O)N[C@@H](CCC(=O)N[C@@H](CCC(=O)N[C@@H](CCC(=O)NCCOCCOCC(=O)NCCOCCOCC(=O)NCCOCCOCC(=O)NCCCC[C@H](NC(=O)CNC(=O)[C@H](CCC(=O)O)NC(=O)C(C)(C)NC(=O)C(C)(C)NC(=O)[C@@H](NC(=O)[C@H](CCCCNC(C)=O)NC(=O)[C@H](C)NC(=O)[C@H](CCCNC(=N)N)NC(=O)[C@@H](NC(=O)[C@H](CCCCN)NC(=O)[C@H](CCC(=O)O)NC(=O)[C@H](CCCNC(=N)N)NC(=O)CNC(=O)[C@H](CCC(=O)O)NC(=O)[C@H](CC(C)C)NC(C)=O)C(C)C)[C@@H](C)CC)C(=O)N[C@@H](CO)C(=O)N[C@H](C(=O)N[C@@H](Cc1c[nH]c2ccccc12)C(=O)N[C@@H](CO)C(=O)NC(C)(C)C(=O)N[C@@H](CCCNC(=N)N)C(=O)N[C@@H](CCCCN)C(=O)N[C@@H](CCCCNC(C)=O)C(N)=O)[C@@H](C)O)C(=O)O)C(=O)O)C(=O)O [compound 19] (Ac-LEGREKVRAK(Ac)I[Aib][Aib]EGK([AEEA-AEEA-AEEA-γGlu-γGlu-γGlu-Palmitoyl])STWS[Aib]RKK(Ac)-NH2)	11.5	94

More lines, in order of falling EC50, values ahead:

EC50 [nM]	Emax [%]	Compound
0.19	97	CCCCCCCCCCCCCCCC(=O)N[C@@H](CCC(=O)N[C@@H](CCC(=O)N[C@@H](CCC(=O)NCCCOCCOCCOCCCNC(=O)CCC(=O)NCCCOCCOCCOCCCNC(=O)CCC(=O)NCCCOCCOCCOCCCNC(=O)CCC(=O)NCCCC[C@H](NC(=O)CNC(=O)[C@H](CCC(=O)O)NC(=O)C(C)(C)NC(=O)C(C)(C)NC(=O)[C@@H](NC(=O)[C@H](CCCCNC(C)=O)NC(=O)[C@H](C)NC(=O)[C@H](CCCNC(=N)N)NC(=O)[C@@H](NC(=O)[C@H](CCCCN)NC(=O)[C@H](CCC(=O)O)NC(=O)[C@H](CCCNC(=N)N)NC(=O)CNC(=O)[C@H](CCC(=O)O)NC(=O)[C@H](CC(C)C)NC(C)=O)C(C)C)[C@@H](C)CC)C(=O)N[C@@H](CO)C(=O)N[C@H](C(=O)N[C@@H](Cc1ccccc1)C(=O)N[C@@H](CO)C(=O)N[C@@](C)(CCCCN)C(=O)N[C@@H](CCCNC(=N)N)C(=O)N[C@@H](C)C(=O)N[C@@H](CCCCN)C(N)=O)[C@@H](C)O)C(=O)O)C(=O)O)C(=O)O [compound 49] (Ac-LEGREKVRAK(Ac)I[Aib][Aib]EGK([Suc-X1])STFS[αMeK]RAK-NH2)
0.11	98	CCCCCCCCCCCCCCCC(=O)N[C@@H](CCC(=O)N[C@@H](CCC(=O)N[C@@H](CCC(=O)NCCCOCCOCCOCCCNC(=O)CCC(=O)NCCCOCCOCCOCCCNC(=O)CCC(=O)NCCCOCCOCCOCCCNC(=O)CCC(=O)NCCCOCCOCCOCCCNC(=O)CCC(=O)NCCCC[C@H](NC(=O)CNC(=O)[C@H](CCC(=O)O)NC(=O)C(C)(C)NC(=O)C(C)(C)NC(=O)[C@@H](NC(=O)[C@H](CCCCNC(C)=O)NC(=O)[C@H](C)NC(=O)[C@H](CCCNC(=N)N)NC(=O)[C@@H](NC(=O)[C@H](CCCNC(=N)N)NC(=O)[C@H](CCC(=O)O)NC(=O)[C@H](CCCNC(=N)N)NC(=O)CNC(=O)[C@H](CCC(=O)O)NC(=O)[C@H](CC(C)C)NC(C)=O)C(C)C)[C@@H](C)CC)C(=O)N[C@@H](CO)C(=O)N[C@H](C(=O)N[C@@H](Cc1ccccc1)C(=O)N[C@@H](CO)C(=O)NC(C)(C)C(=O)N[C@@H](CCCNC(=N)N)C(=O)N[C@@H](CCCNC(=N)N)C(=O)N[C@@H](CCCCNC(C)=O)C(N)=O)[C@@H](C)O)C(=O)O)C(=O)O)C(=O)O [compound 77] (Ac-LEGRERVRAK(Ac)I[Aib][Aib]EGK([Suc-X5])STFS[Aib]RRK(Ac)-NH2)
0.09	97	CCCCCCCCCCCCCCCC(=O)N[C@@H](CCC(=O)N[C@@H](CCC(=O)N[C@@H](CCC(=O)NCCCOCCOCCOCCCNC(=O)CCC(=O)NCCCOCCOCCOCCCNC(=O)CCC(=O)NCCCOCCOCCOCCCNC(=O)CCC(=O)NCCCC[C@H](NC(=O)CNC(=O)[C@H](CCC(=O)O)NC(=O)C(C)(C)NC(=O)C(C)(C)NC(=O)[C@@H](NC(=O)[C@H](CCCCNC(C)=O)NC(=O)[C@H](C)NC(=O)[C@H](CCCNC(=N)N)NC(=O)[C@@H](NC(=O)[C@H](CCCNC(=N)N)NC(=O)[C@H](CCC(=O)O)NC(=O)[C@H](CCCNC(=N)N)NC(=O)CNC(=O)[C@H](CCC(=O)O)NC(=O)[C@H](CC(C)C)NC(C)=O)C(C)C)[C@@H](C)CC)C(=O)N[C@@H](CO)C(=O)N[C@H](C(=O)N[C@@H](Cc1ccc(F)cc1)C(=O)N[C@@H](CO)C(=O)NC(C)(C)C(=O)N[C@@H](CCCNC(=N)N)C(=O)N[C@@H](CCCNC(=N)N)C(=O)N[C@@H](CCCCNC(C)=O)C(N)=O)[C@@H](C)O)C(=O)O)C(=O)O)C(=O)O [compound 91] (Ac-LEGRERVRAK(Ac)I[Aib][Aib]EGK([Suc-X1])ST[Phe(4-F)]S[Aib]RRK(Ac)-NH2)

Reference: patent US11725036B2, “Modified lipidated relaxin B chain peptides and their therapeutic use” (Sanofi, priority 2018, dated 2023)
